We go through 93 molecules from ChEMBL document CHEMBL5604062, “ASAP - ZIKV NS2B-NS3 protease fluorescence dose response” (2024).

Each structure is given as a SMILES string. Several values for one entry are separate records, joined by “and”; a condition that tells them apart may be missing. Identical values can stand only once.

The test has as its target Nonstructural protein 3 (Zika virus, UniProt A0A024AXB9). The test can be described thus: Functional biochemical assay to identify treatments for viral infectious disease that targets Zika NS2B-NS3 protease. Utilizing a direct enzyme activity measurement method, reading the fluorescence intensity is used to characterize the relative potency of inhibitors as IC50. More on the design: species or system PRVABC59.

Sequence of Nonstructural protein 3 (A0A024AXB9 whole entry): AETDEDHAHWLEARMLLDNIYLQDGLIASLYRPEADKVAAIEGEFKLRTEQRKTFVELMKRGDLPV

Turning to `CN(c1ccc2c(c1)CNC2)[C@H](C(=O)NCC(F)F)c1cc(Cl)cc(C2CC2)c1`, the IC50 was 32 nM and 17 nM.

With `Cc1c(C(=O)Nc2cc(C(=O)N3CCn4nccc43)ccn2)cc(C2CC2)n1C`, the IC50 was > 25000 nM.

In the case of `Cc1ncc2c(n1)CCC[C@H]2NC(=O)c1cccc2c1CC(=O)N2`, the half-maximal inhibitory concentration (IC50) is > 25000 nM.

As to `O=C1Cc2c(cccc2C(=O)N[C@H]2C[C@H](OC(F)F)C2)N1`, the IC50 was > 25000 nM.

As for `O=C1Cc2c(cccc2C(=O)Nc2cc3c(cn2)OCCO3)N1`, the IC50 was > 25000 nM.

For the molecule `Cc1c(C(=O)Nc2cc(C(=O)N[C@H]3CNC(=O)C3)ccn2)cc(C2CC2)n1C`, the IC50 is > 25000 nM.

Take `COC1CN(C(=O)c2ccnc(NC(=O)c3cc(C4CC4)n(C)c3C)c2)C1`: the IC50 was > 25000 nM.

As for `O=C(Nc1cc2c(c(-c3c[nH]c(=O)c(F)c3)c1)CNC2)c1cc(F)cc2[nH]ncc12`, the IC50 is 25 nM and 15 nM.

For the molecule `Cc1cc(C(=O)Nc2ccc3c(c2)CNC3)cc2nc[nH]c12`, half-maximal inhibition (IC50) was put at 121 nM.

For `COCc1cc(Cl)cc([C@H](Nc2ccc3c(c2)CNC3)C(=O)NCC(F)F)c1`, the IC50 was 27 nM and 14 nM.

Take `O=C(NCC(F)F)[C@H](Nc1ccc2c(c1)CNC2)c1cc(Cl)ccc1Cl`: the IC50 worked out at 232 nM.

As for `C=CC[C@H]1c2ccc(NC(=O)c3cc(Br)cc4[nH]ccc34)cc2CN1C(=O)OC(C)(C)C`, the half-inhibitory concentration (IC50) was > 25000 nM.

For `COc1cccc(-c2nc3c(C(=O)Nc4ccc5c(c4)CNC5)cc(F)cc3[nH]2)c1`, the IC50 is 46 nM and 42 nM and 25 nM.

With `CO[C@H]1C[C@H](n2ncc3c(C(=O)Nc4ccc5c(c4)CNC5)cc(Cl)cc32)C1`, the IC50 was 54 nM and 42 nM.

For `CCNC(=O)c1ccnc(NC(=O)c2cc(C3CC3)n(C)c2C)c1`, the IC50 is > 25000 nM.

As to `O=C1Cc2c(cccc2C(=O)N[C@H]2CCC[C@@H](C(=O)NC3CC3)C2)N1`, the concentration for half-maximal inhibition (IC50) is > 25000 nM.

On to `O=C1Cc2c(cccc2C(=O)N[C@H]2COc3cc(Br)cnc32)N1`, for which the IC50 is > 25000 nM.

`O=C(Nc1ccc2c(c1)CNC2)c1cc(F)cc2[nH]c(CC[C@H]3CCCOC3)nc12` yielded an IC50 of 135 nM.

Turning to `O=C(NCC(F)F)[C@H](Nc1ccc2c(c1)CNC2)c1cccc(Cl)c1`, the IC50 is 82 nM and 66 nM.

For the molecule `O=C1Cc2c(cccc2C(=O)Nc2ccn(C[C@H]3CCOC3)n2)N1`, the IC50 is > 25000 nM.

Take `Cc1cc(N2CCC(NC(=O)c3cccc4c3CC(=O)N4)CC2)[nH]n1`: the IC50 was > 25000 nM.

With `O=C(Nc1cc(-c2cccnc2)ccn1)c1cc(C2CC2)on1`, the IC50 is > 25000 nM.

Consider `CCO[C@@H]1CC[C@H]1NC(=O)c1cccc2c1CC(=O)N2`, for which the IC50 is > 25000 nM.

As to `O=C1Cc2c(cccc2C(=O)NC[C@H]2C[C@@H](n3cccn3)C2)N1`, the IC50 is > 25000 nM.

In the case of `O=C1Cc2c(cccc2C(=O)N[C@H]2CCc3ncsc3C2)N1`, the concentration for half-maximal inhibition (IC50) is > 25000 nM.

Regarding `Cc1nc(C2CC2)[nH]c1C(=O)Nc1cc(-c2cccnc2)ccn1`, the IC50 was > 25000 nM.

`CN1C(=O)CC[C@H]1c1nc2c(C(=O)Nc3ccc4c(c3)CNC4)cc(F)cc2[nH]1` had a concentration for half-maximal inhibition (IC50) of 264 nM.

As for `Cc1c(C(=O)Nc2cc(C(=O)N[C@H]3CCOC3)ccn2)cc(C2CC2)n1C`, the IC50 is > 25000 nM.

On to `O=C1Cc2c(cccc2C(=O)N[C@H]2CC[C@H](OC3CCCC3)CC2)N1`, for which the IC50 is > 25000 nM.

For `CCOCC1(c2nc3c(C(=O)Nc4ccc5c(c4)CNC5)cc(F)cc3[nH]2)CC1`, the IC50 worked out at 137 nM.

For `NCc1cccc(-c2csc3cc(C(=O)Nc4ccc5c(c4)CNC5)ccc23)c1`, the IC50 was 1710 nM and 1410 nM.

Turning to `O=C(Nc1ccc2c(c1)CNC2)c1cc(F)cc2[nH]c(-c3cccc(F)c3)nc12`, the IC50 was 36 nM (2×) and 22 nM.

On to `O=C1Cc2c(cccc2C(=O)N[C@H]2C[C@@H](c3ncc[nH]3)C2)N1`, for which the IC50 is > 25000 nM.

Regarding `Cc1c(C(=O)Nc2cc(C(=O)N3CC[C@H]3CO)ccn2)cc(C2CC2)n1C`, the IC50 is > 25000 nM.

With `Cc1nc(C2(NC(=O)c3cccc4c3CC(=O)N4)CCC2)no1`, the IC50 is > 25000 nM.

On to `C[C@H]1C[C@H]1c1cc(C(=O)Nc2cc(-c3cccnc3)ccn2)no1`, for which the 50% inhibitory concentration (IC50) was > 25000 nM.

On to `O=C1Cc2c(cccc2C(=O)NC2(c3ncccc3F)CC2)N1`, for which the IC50 was > 25000 nM.

In the case of `Cc1cccc(-c2nc3c(C(=O)Nc4ccc5c(c4)CNC5)cc(F)cc3[nH]2)c1`, the IC50 is 112 nM and 159 nM.

For `O=C1Cc2c(cccc2C(=O)NC2CCN(c3nccs3)CC2)N1`, the IC50 was > 25000 nM.

Regarding `Cc1c(C(=O)Nc2cc(C(=O)Nc3cccnc3)ccn2)cc(C2CC2)n1C`, the IC50 was > 25000 nM.

`O=C(NCC(F)F)[C@H](Nc1ccc2c(c1)CNC2)c1cccc2c1CCC2` returned an IC50 of 3620 nM.

With `Cc1[nH]c(-c2ccccc2)cc1C(=O)Nc1cc(-c2cccnc2)ccn1`, the 50% inhibitory concentration (IC50) is > 25000 nM.

`CC(C)NC(=O)[C@H](Nc1ccc2c(c1)CN(C)C2)c1cc(Cl)cc2[nH]ncc12`: the IC50 is 533 nM.

Consider `O=C(NCC(F)F)[C@H](Nc1ccc2c(c1)CNC2)c1cc(Cl)cc(Cl)c1Cl`, for which the IC50 was 69 nM and 65 nM.

On to `Cc1c(C(=O)Nc2cccc(-c3ccc(O)nc3)c2)cc(C2CC2)n1C`, for which the IC50 is > 25000 nM.

Regarding `CCc1cc2c(cc1NC(=O)c1cc(F)cc3[nH]ncc13)CNC2`, inhibition was half-maximal at 140 nM (IC50).

With `CC1(NC(=O)c2cccc3c2CC(=O)N3)CCOCC1`, the half-maximal inhibitory concentration (IC50) is > 25000 nM.

With `O=C(Nc1ccc2c(c1)CNC2)c1ccc2c(C3=CCNCC3)csc2c1`, the IC50 is 500 nM and 540 nM.

`COc1ccc(Cl)cc1[C@H](Nc1ccc2c(c1)CNC2)C(=O)NCC(F)F`: the IC50 is 61 nM and 53 nM.

Take `O=C1Cc2c(cccc2C(=O)N[C@H]2CCC23CCOCC3)N1`: the IC50 is > 25000 nM.

As for `O=C1Cc2c(cccc2C(=O)Nc2ccc(-c3cccnc3)cn2)N1`, the IC50 is > 25000 nM.

On to `Cc1c(C(=O)Nc2cc(C(=O)N3CC[C@H](CO)C3)ccn2)cc(C2CC2)n1C`, for which the IC50 is > 25000 nM.

As to `COc1ccccc1Cn1cnc2cc(C(=O)Nc3ccc4c(c3)CNC4)ccc21`, the IC50 is > 25000 nM.

As to `CC(C)(O)c1cncc(NC(=O)c2cccc3c2CC(=O)N3)c1`, the concentration for half-maximal inhibition (IC50) is > 25000 nM.

With `Cc1c(C(=O)Nc2cc(C(=O)N3CC(CO)C3)ccn2)cc(C2CC2)n1C`, the IC50 is > 25000 nM.

Molecule `O=C(Nc1ccc2c(c1)CNC2)c1cc(Cl)cc2c1cnn2C[C@H]1CCCO1` came in with an IC50 of 136 nM.

Consider `C[C@H](NC(=O)c1cccc2c1CC(=O)N2)c1cccc(S(C)(=O)=O)c1`, for which the IC50 is > 25000 nM.

In the case of `O=C(NCC(F)F)[C@H](Nc1ccc2c(c1)CNC2)c1cc(Cl)cc2c1CCC2`, the IC50 is 51 nM and 34 nM.

As for `COC(=O)N1CCc2cc(NC(=O)c3cc(C4CC4)n(C)c3C)ccc21`, the IC50 is > 25000 nM.

With `O=C(NCC(F)F)[C@H](Nc1ccc2c(c1)CNC2)c1cc(Cl)cc2ccoc12`, the IC50 was 28 nM and 18 nM.

As for `O=C(Nc1ccc2c(c1)CNC2)c1cccc2c1[C@]1(CCN(C(=O)OCc3ccccc3)C1)C(=O)N2`, the midpoint of inhibition, the IC50, lay at 243 nM.

Regarding `CNC(=O)C[C@H]1CC[C@@H](NC(=O)c2cccc3c2CC(=O)N3)CC1`, the IC50 was > 25000 nM.

For `O=C1Cc2c(cccc2C(=O)N[C@H]2C[C@H](c3ccon3)C2)N1`, the IC50 is > 25000 nM.

As for `O=C1Cc2c(cccc2C(=O)N[C@H]2CCSC3(CCOCC3)C2)N1`, the concentration for half-maximal inhibition (IC50) is > 25000 nM.

With `CC(C)n1ncc2c(C(=O)Nc3ccc4c(c3)CNC4)cc(Cl)cc21`, the IC50 was 186 nM. This lies in the sub-micromolar range.

Take `O=C1Cc2c(cccc2C(=O)NC2(c3ccc(O)nc3)CC2)N1`: the IC50 was > 25000 nM.

As for `Cc1cc(=O)[nH]c(-c2cccc(NC(=O)c3cc(C4CC4)n(C)c3C)c2)n1`, the IC50 is > 25000 nM.

For the molecule `NC(=O)N1CCc2ccc(NC(=O)c3cccc4c3CC(=O)N4)cc21`, the IC50 was > 25000 nM.

With `Cc1[nH]nc2c1CC[C@H](NC(=O)c1cccc3c1CC(=O)N3)C2`, the IC50 is > 25000 nM.

Regarding `COc1cc(C#N)cc([C@H](Nc2ccc3c(c2)CNC3)C(=O)NCC(F)F)c1`, the 50% inhibitory concentration (IC50) is 42 nM and 31 nM.

As to `N#Cc1csc2cc(C(=O)Nc3ccc4c(c3)CNC4)ccc12`, the IC50 stood at 466 nM.

For the molecule `O=C(Nc1ccc2c(c1)CNC2)c1cc(F)cc(C2=CCOCC2)c1`, half-maximal inhibition (IC50) was put at 362 nM.

With `Cc1c(NC(=O)c2cccc3c2CC(=O)N3)cnn1C1CCOCC1`, the IC50 was > 25000 nM.

Regarding `C=CCNC(=O)C1(NC(=O)c2cccc3c2CC(=O)N3)CCCCC1`, the IC50 is > 25000 nM.

For `O=C1Cc2c(cccc2C(=O)N[C@H]2C[C@H](Cn3ccnc3)C2)N1`, the concentration for half-maximal inhibition (IC50) was > 25000 nM.

In the case of `COc1ccc([C@@H]2C[C@H]2NC(=O)c2cccc3c2CC(=O)N3)cc1`, the IC50 was > 25000 nM.

As to `Cc1c(C(=O)Nc2cc(C(=O)N3CCC(O)CC3)ccn2)cc(C2CC2)n1C`, the concentration for half-maximal inhibition (IC50) was > 25000 nM.

Turning to `Cc1c(C(=O)Nc2cc(C(=O)N3CCNC(=O)C3)ccn2)cc(C2CC2)n1C`, the IC50 is > 25000 nM.

With `O=C1Cc2c(cccc2C(=O)N[C@H]2CC[C@@H](n3ccnn3)CC2)N1`, the IC50 is > 25000 nM.

As for `CC(C)n1cc2c(C(=O)Nc3ccc4c(c3)CNC4)cc(Cl)cc2n1`, the IC50 was 46 nM and 34 nM.

In the case of `COC(=O)c1cc2c(cc1NC(=O)c1cc(F)cc3[nH]ncc13)CNC2`, the IC50 is 50 nM and 29 nM.

With `Cc1c(C(=O)Nc2cc(C(N)=O)ccn2)cc(C2CC2)n1C`, the IC50 is > 25000 nM.

Consider `O=C1Cc2c(cccc2C(=O)NC2CC3(CCOCC3)C2)N1`, for which the IC50 is > 25000 nM.

Turning to `O=C(Nc1ccc2c(c1)CNC2)c1cc(F)cc2[nH]c(CCc3cccnc3)nc12`, the IC50 was 131 nM.

`O=C1Cc2c(cccc2C(=O)N[C@H]2CCc3cnccc32)N1`: the IC50 is > 25000 nM.

As to `C[C@H](NC(=O)c1cccc2c1CC(=O)N2)c1cc2cnccc2o1`, the IC50 was > 25000 nM.

Turning to `Cc1c(C(=O)Nc2cc(C(=O)N3CCOCC3)ccn2)cc(C2CC2)n1C`, the IC50 was > 25000 nM.

Take `C[C@H](NC(=O)c1cccc2c1CC(=O)N2)c1ccncc1F`: the concentration for half-maximal inhibition (IC50) is > 25000 nM.

Take `CCCn1ncc2c(C(=O)Nc3ccc4c(c3)CNC4)cc(Cl)cc21`: the IC50 amounted to 188 nM.

On to `Cn1nc(CNc2ccc3c(c2)CNC3)cc1C1CC1`, for which the IC50 was determined as 10900 nM.

In the case of `O=C(Nc1ccc2c(c1)CNC2)c1cc(Cl)cc2c1cnn2C1CCC1`, the IC50 was 31 nM and 23 nM.

For the molecule `O=C1Cc2c(cccc2C(=O)NC[C@H]2CCCN(c3nccs3)C2)N1`, the 50% inhibitory concentration (IC50) is > 25000 nM.

`O=C1Cc2c(cccc2C(=O)NCC2(F)CC3(CCOCC3)C2)N1`: the IC50 is > 25000 nM.

Usually IC50 stands for the concentration at which inhibition is half-maximal. Low readings indicate greater potency in that assay, high ones weaker potency in that assay.
